# The source made the active and inactive calls. How the calls were made is not given here.
# Test system: CCRIS mutagenicity, Ames/micronucleus/aberration tests
# Experiment: CCRIS mutagenicity studies
# [1] = Test System: AMES SALMONELLA TYPHIMURIUM, Strain/Indicator: TA100, Metabolic Activation: NONE, Method: STANDARD PLATE
# [2] = Test System: MOUSE LYMPHOMA, Strain/Indicator: L5178Y (TK+/TK-), Metabolic Activation: NONE, Method: SUSPENSION/PLATE
# [3] = Test System: AMES SALMONELLA TYPHIMURIUM, Strain/Indicator: TA100, Metabolic Activation: RAT, LIVER, S-9, AROCLOR 1254, Method: PREINCUBATION
# [4] = Test System: AMES SALMONELLA TYPHIMURIUM, Strain/Indicator: TA98, Metabolic Activation: NONE, Method: STANDARD PLATE
# [5] = Test System: AMES SALMONELLA TYPHIMURIUM, Strain/Indicator: TA98, Metabolic Activation: RAT, LIVER, S-9, AROCLOR 1254, Method: STANDARD PLATE
compound,measurement,setting,value
O=[N+]([O-])c1ccc(Oc2ccc(Cl)cc2Cl)cc1,mutagenic call,"Test System: AMES SALMONELLA TYPHIMURIUM, Strain/Indicator: TA98, Metabolic Activation: S-9, Method: STANDARD PLATE",inactive; negative
same,mutagenic call,[1],active; positive
same,mutagenic call,"Test System: AMES SALMONELLA TYPHIMURIUM, Strain/Indicator: TA100, Metabolic Activation: S-9, Method: STANDARD PLATE",inactive; negative
same,mutagenic call,"Test System: AMES SALMONELLA TYPHIMURIUM, Strain/Indicator: TA100, Metabolic Activation: S-9 MIX, Method: STANDARD PLATE",active; positive
same,mutagenic call,"Test System: AMES SALMONELLA TYPHIMURIUM, Strain/Indicator: YG1021, Metabolic Activation: S-9, Method: STANDARD PLATE",inactive; negative
same,mutagenic call,"Test System: AMES SALMONELLA TYPHIMURIUM, Strain/Indicator: YG1024, Metabolic Activation: S-9, Method: STANDARD PLATE",inactive; negative
same,mutagenic call,"Test System: AMES SALMONELLA TYPHIMURIUM, Strain/Indicator: YG1026, Metabolic Activation: S-9, Method: STANDARD PLATE",active; positive
same,mutagenic call,"Test System: AMES SALMONELLA TYPHIMURIUM, Strain/Indicator: YG1029, Metabolic Activation: S-9, Method: STANDARD PLATE",active; positive
same,mutagenic call,"Test System: E. COLI, Strain/Indicator: WP2 UVRA, Metabolic Activation: HAMSTER, LIVER, S-9, AROCLOR 1254, Method: STANDARD PLATE",inactive; negative
same,mutagenic call,"Test System: E. COLI, Strain/Indicator: WP2 UVRA, Metabolic Activation: HAMSTER, LIVER, S-9, Method: STANDARD PLATE",inactive; negative
same,mutagenic call,"Test System: E. COLI, Strain/Indicator: WP2 UVRA, Metabolic Activation: MOUSE, LIVER, S-9, AROCLOR 1254, Method: STANDARD PLATE",inactive; negative
same,mutagenic call,"Test System: E. COLI, Strain/Indicator: WP2 UVRA, Metabolic Activation: MOUSE, LIVER, S-9, Method: STANDARD PLATE",inactive; negative
same,mutagenic call,"Test System: E. COLI, Strain/Indicator: WP2 UVRA, Metabolic Activation: NONE, Method: STANDARD PLATE",inactive; negative
same,mutagenic call,"Test System: E. COLI, Strain/Indicator: WP2 UVRA, Metabolic Activation: RAT, LIVER, S-9, AROCLOR 1254, Method: STANDARD PLATE",inactive; negative
same,mutagenic call,"Test System: E. COLI, Strain/Indicator: WP2 UVRA, Metabolic Activation: RAT, LIVER, S-9, Method: STANDARD PLATE",inactive; negative
same,mutagenic call,"Test System: MOUSE LYMPHOMA, Strain/Indicator: L5178Y (HPRT), Metabolic Activation: NONE, Method: SUSPENSION/PLATE",inactive; negative
same,mutagenic call,[2],inactive; negative
O[C@@H]1C=Cc2c(ccc3c2sc2ccccc23)[C@H]1O,mutagenic call,[3],active; positive
Oc1ccc2ccc3c4c(ccc3c2c1)[C@@H](O)[C@H](O)C=C4,mutagenic call,[4],inactive; negative
same,mutagenic call,[5],active; positive
same,mutagenic call,[1],inactive; negative
same,mutagenic call,"Test System: AMES SALMONELLA TYPHIMURIUM, Strain/Indicator: TA100, Metabolic Activation: RAT, LIVER, S-9, AROCLOR 1254, Method: STANDARD PLATE",active; positive
O=c1c(O)c(-c2ccc(O)cc2)oc2cc(O)cc(O)c12,mutagenic call,"Test System: AMES SALMONELLA TYPHIMURIUM, Strain/Indicator: TA97A, Metabolic Activation: NONE, Method: STANDARD PLATE",inactive; negative
same,mutagenic call,"Test System: AMES SALMONELLA TYPHIMURIUM, Strain/Indicator: TA97A, Metabolic Activation: RAT, LIVER, S-9, AROCLOR 1254, Method: STANDARD PLATE",active; positive
same,mutagenic call,"Test System: AMES SALMONELLA TYPHIMURIUM, Strain/Indicator: TA98, Metabolic Activation: HAMSTER, LIVER, S-9, AROCLOR 1254, Method: STANDARD PLATE",active; positive
same,mutagenic call,[4],inactive; negative
same,mutagenic call,"Test System: AMES SALMONELLA TYPHIMURIUM, Strain/Indicator: TA98, Metabolic Activation: RAT, LIVER, S-9, 5,6-BENZOFLAVONE AND/OR SODIUM PHENOBARBITAL, Method: PREINCUBATION",active; positive
same,mutagenic call,[5],active; positive
same,mutagenic call,"Test System: AMES SALMONELLA TYPHIMURIUM, Strain/Indicator: TA98, Metabolic Activation: RAT, LIVER, S-105, 5,6-BENZOFLAVONE AND/OR SODIUM PHENOBARBITAL, Method: PREINCUBATION",inactive; negative
same,mutagenic call,[1],inactive; negative
same,mutagenic call,"Test System: AMES SALMONELLA TYPHIMURIUM, Strain/Indicator: TA102, Metabolic Activation: NONE, Method: STANDARD PLATE",inactive; negative
same,mutagenic call,"Test System: AMES SALMONELLA TYPHIMURIUM, Strain/Indicator: TA102, Metabolic Activation: RAT, LIVER, S-9, AROCLOR 1254, Method: STANDARD PLATE",active; positive
same,mutagenic call,"Test System: AMES SALMONELLA TYPHIMURIUM, Strain/Indicator: TA1535, Metabolic Activation: HAMSTER, LIVER, S-9, AROCLOR 1254, Method: STANDARD PLATE",inactive; negative
same,mutagenic call,"Test System: AMES SALMONELLA TYPHIMURIUM, Strain/Indicator: TA1535, Metabolic Activation: NONE, Method: STANDARD PLATE",inactive; negative
same,mutagenic call,"Test System: AMES SALMONELLA TYPHIMURIUM, Strain/Indicator: TA1535, Metabolic Activation: RAT, LIVER, S-9, AROCLOR 1254, Method: STANDARD PLATE",inactive; negative
same,mutagenic call,"Test System: AMES SALMONELLA TYPHIMURIUM, Strain/Indicator: TA1537, Metabolic Activation: HAMSTER, LIVER, S-9, AROCLOR 1254, Method: STANDARD PLATE",active; positive
same,mutagenic call,"Test System: AMES SALMONELLA TYPHIMURIUM, Strain/Indicator: TA1537, Metabolic Activation: NONE, Method: STANDARD PLATE",inactive; negative
same,mutagenic call,"Test System: AMES SALMONELLA TYPHIMURIUM, Strain/Indicator: TA1537, Metabolic Activation: RAT, LIVER, S-9, AROCLOR 1254, Method: STANDARD PLATE",active; positive
same,mutagenic call,[2],active; positive. reevaluation of results: positive
same,mutagenic call,"Test System: MOUSE LYMPHOMA, Strain/Indicator: L5178Y (TK+/TK-), Metabolic Activation: RAT, LIVER, S-9, AROCLOR 1254, Method: SUSPENSION/PLATE",active; positive. reevaluation of results: equivocal
Cc1cccc(OC(=O)N(C)N=O)c1,mutagenic call,"Test System: E. COLI WP2, Strain/Indicator: WP2, Metabolic Activation: NONE, Method: STANDARD PLATE",active; positive
O=C(O)[C@H](O)[C@@H](O)[C@H](O)[C@H](O)CO,mutagenic call,"Test System: AMES SALMONELLA TYPHIMURIUM, Strain/Indicator: TA97, Metabolic Activation: NONE, Method: PREINCUBATION",inactive; negative
same,mutagenic call,"Test System: AMES SALMONELLA TYPHIMURIUM, Strain/Indicator: TA97, Metabolic Activation: RAT, LIVER, S-9, AROCLOR 1254, Method: PREINCUBATION",inactive; negative
same,mutagenic call,"Test System: AMES SALMONELLA TYPHIMURIUM, Strain/Indicator: TA102, Metabolic Activation: NONE, Method: PREINCUBATION",inactive; negative
same,mutagenic call,"Test System: AMES SALMONELLA TYPHIMURIUM, Strain/Indicator: TA102, Metabolic Activation: RAT, LIVER, S-9, AROCLOR 1254, Method: PREINCUBATION",inactive; negative
OC1C=Cc2c(ccc3c2-c2cccc4cccc-3c24)C1O (stereo unspecified),mutagenic call,"Test System: AMES SALMONELLA TYPHIMURIUM, Strain/Indicator: TA97A, Metabolic Activation: NONE, Method: PREINCUBATION",inactive; negative
same,mutagenic call,"Test System: AMES SALMONELLA TYPHIMURIUM, Strain/Indicator: TA97A, Metabolic Activation: RAT, LIVER, S-9, AROCLOR 1254, Method: PREINCUBATION",active; positive
same,mutagenic call,"Test System: AMES SALMONELLA TYPHIMURIUM, Strain/Indicator: TA98, Metabolic Activation: NONE, Method: PREINCUBATION",inactive; negative
same,mutagenic call,"Test System: AMES SALMONELLA TYPHIMURIUM, Strain/Indicator: TA98, Metabolic Activation: RAT, LIVER, S-9, AROCLOR 1254, Method: PREINCUBATION",active; positive
same,mutagenic call,"Test System: AMES SALMONELLA TYPHIMURIUM, Strain/Indicator: TA100, Metabolic Activation: NONE, Method: PREINCUBATION",inactive; negative
same,mutagenic call,[3],active; positive
